Converted amounts (≈) assume the structure as drawn.
How the values were obtained:
[1] = test system: WI 38 (normal fibroblast cells); assay: SRB cell growth assay, normal cells WI 38; type: cell-based, human; details: 48 h exposure, non-cytotoxic = IC50 > 100 μg/mL; for IC50: Homo sapiens
Description: (§1) The in vitro cytotoxic activity the newly synthesized compounds against human breast cell line (MCF7), non-small cell lung cancer NCI-H460, CNS cancer SF-268 and WI 38 (normal fibroblast cells) were evaluated using doxorubicin as the reference drug, according to the method reported by Skehan et al..
(§2) The newly synthesized compounds were evaluated in vitro against three human cancer cell lines; which are MCF-7 (breast adenocarcinoma), NCI-H460 (non-small cell lung cancer) and SF-268 (CNS cancer), and WI 38 (normal fibroblast cells) were used in this study. MCF-7 was obtained from the European Collection of Cell Cultures (ECACC, Salisbury, UK) but NCI-H460, SF-268 and WI 38 were kindly provided by the National Cancer Institute (NCI, Cairo, Egypt). They grow as monolayers routinely maintained in RPMI-1640 medium supplemented with 5% heat inactivated fetal bovine serum (FBS), 2 mM glutamine and antibiotics (penicillin 100 U/mL, streptomycin 100 µg/mL), at 37 °C in a humidified atmosphere containing 5% CO2. Exponentially growing cells were obtained by plating 1.5 × 10^5 cells/mL for MCF-7 and SF-268, and 0.75 × 10^4 cells/mL for NCI-H460 followed by 24 h of incubation. The effect of the vehicle solvent (DMSO) on the growth of these cell lines was evaluated in all experiments by exposing untreated control cells to the maximum concentration (0.5%) of DMSO used in each assay.
(§3) The effect of compounds on the in vitro growth of human tumor cell lines were evaluated according to the procedure adopted by the National Cancer Institute (NCI, […], USA) in the “In vitro Anticancer Drug Discovery Screen” that uses the protein-binding dye sulforhodamine B (SRB) to assess cell growth. In the assay protocol, all cells were incubated at 37 °C under humidified atmosphere containing 5% CO2. Briefly, exponentially cells growing in 96-well plates were then exposed for 48 h to five serial concentrations of each compound, starting from a maximum concentration of 150 μg/mL. Following this exposure period, adherent cells were fixed, washed and stained. The bound stain was solubilized and the absorbance was measured at 492 nm in a Power Wave XS plate reader (Bio-Tek Instruments Inc., Winston, NC, USA). For each test compound and cell line, a dose response curve was obtained and the inhibitory concentration of 50% (IC50), corresponding to the concentration of the compounds that inhibited 50% of the net cell growth was calculated as described elsewhere. Doxorubicin was used as a positive control and tested in the same manner.

SF-268 (CNS cancer) = assay: SRB cancer cell growth assay, SF-268; type: cell-based, human; design: key to activity class SF-268: highly active; b: moderately active; weakly active; details: for IC50: Homo sapiens, SF-268, 48 h exposure, SRB, read-out: IC50 (μg/mL) SF-268
Description: as §1, §2, §3

[2] = test system: NCI-H460 (non-small cell lung cancer); assay: SRB cancer cell growth assay, NCI-H460; type: cell-based, human; design: key to activity class NCI-H460: highly active; b: moderately active; weakly active; details: for IC50: Homo sapiens, NCI-H460, 48 h exposure, SRB, read-out: IC50 (μg/mL) NCI-H460
Description: as §1, §2, §3

[3] = test system: MCF-7 (breast adenocarcinoma); assay: SRB cancer cell growth assay, MCF-7; type: cell-based, human; design: key to activity class MCF-7: highly active; b: moderately active; weakly active; details: for IC50: Homo sapiens, MCF7, MCF-7, 48 h exposure, SRB, read-out: IC50 (μg/mL) MCF-7
Description: as §1, §2, §3

| SMILES | melting point | IC50 (SF-268 (CNS cancer)) | IC50 [2] | IC50 [3] | IC50 (μg/mL) WI 38 [1] | activity class SF-268 (SF-268 (CNS cancer)) | activity class NCI-H460 [2] | activity class MCF-7 [3] | IC50 [1] |
| --- | --- | --- | --- | --- | --- | --- | --- | --- | --- |
| N#Cc1c(-c2ccc(F)cc2)cc(-c2ccc(Cl)cc2Cl)nc1NCc1ccccc1 [Compound 12, 2-(Benzylamino)-6-(2,4-dichlorophenyl)-4-(4-fluorophenyl)nicotinonitrile] | 158 to 159 °C | – | – | – | – | – | – | – | – |
| CC1=NN(c2nc(-c3ccc(Cl)cc3Cl)cc(-c3ccc(F)cc3)c2C#N)C(=O)C1 [Compound 18, 6-(2,4-Dichlorophenyl)-4-(4-fluorophenyl)-2-(3-methyl-5-oxo-4,5-dihydro-1H-pyrazol-1-yl) nicotinonitrile] | 246 to 248 °C | 20.2 ± 3.26 µg/mL (≈ 46 µM) | 0.01 ± 0.003 µg/mL (≈ 0.0228 µM) | 20.2 ± 2.26 µg/mL (≈ 46 µM) | – | b | a | b | 29.8 ± 4.88 µg/mL (≈ 67.9 µM) |
| N#Cc1c(-c2ccc(F)cc2)cc(-c2ccc(Cl)cc2Cl)nc1NN=C1C(=O)Nc2ccccc21 [Compound 20, 6-(2,4-Dichlorophenyl)-4-(4-fluorophenyl)-2-[2-(2-oxoindolin-3-ylidene)hydrazinyl]nicotinonitrile] | 268 to 269 °C | 2.34 ± 0.51 µg/mL (≈ 4.66 µM) | 0.9 ± 0.12 µg/mL (≈ 1.79 µM) | 0.66 ± 0.21 µg/mL (≈ 1.31 µM) | – | a | a | a | 72.5 ± 2.4 µg/mL (≈ 144 µM) |
| CCOC(=O)COc1nc(-c2ccc(Cl)cc2Cl)cc(-c2ccc(F)cc2)c1C#N [Compound 8, Ethyl 2-[3-cyano-6-(2,4-dichlorophenyl)-4-(4-fluorophenyl)pyridin-2-yloxy]acetate] | 119 to 121 °C | 0.02 ± 0.045 µg/mL (≈ 0.0449 µM) | 0.01 ± 0.002 µg/mL (≈ 0.0225 µM) | 0.02 ± 0.002 µg/mL (≈ 0.0449 µM) | non-cytotoxic | a | a | a | > 100 µg/mL |
| N#Cc1c(N)c2c(-c3ccc(F)cc3)cc(-c3ccc(Cl)cc3Cl)nc2[nH]c1=O [Compound 7, 4-Amino-7-(2,4-dichlorophenyl)-5-(4-fluorophenyl)-2-oxo-1,2-dihydro-1,8-naphthyridine-3-carbonitrile] | 188 to 189 °C | 62.1 ± 3.61 µg/mL (≈ 146 µM) | 74 ± 3.65 µg/mL (≈ 174 µM) | 36.2 ± 2.14 µg/mL (≈ 85.2 µM) | – | c | c | c | 23 ± 8.2 µg/mL (≈ 54 µM) |
| Nc1nnc2[nH]c(-c3ccc(Cl)cc3Cl)cc(-c3ccc(F)cc3)c1-2 [Compound 4, 6-(2,4-Dichlorophenyl)-4-(4-fluorophenyl)-7H-pyrazolo[3,4-b]pyridin-3-amine] | 309 to 311 °C | 69 ± 9.15 µg/mL (≈ 185 µM) | 56.8 ± 8.2 µg/mL (≈ 152 µM) | 67 ± 6.23 µg/mL (≈ 180 µM) | – | c | c | c | 18.6 ± 1.21 µg/mL (≈ 49.9 µM) |
| N#Cc1c(-c2ccc(F)cc2)cc(-c2ccc(Cl)cc2Cl)nc1NCc1ccc2c(c1)OCO2 [Compound 13, 2-(Benzo[d][1,3]dioxol-5-ylmethylamino)-6-(2,4-dichlorophenyl)-4-(4-fluorophenyl)nicotinonitrile] | 149 to 151 °C | 23.2 ± 4.12 µg/mL (≈ 47.2 µM) | 18.9 ± 1.03 µg/mL (≈ 38.4 µM) | 16.3 ± 1.87 µg/mL (≈ 33 µM) | – | b | b | b | 20.4 ± 4.99 µg/mL (≈ 41.4 µM) |
| N#Cc1c(-c2ccc(F)cc2)cc(-c2ccc(Cl)cc2Cl)[nH]c1=O [Compound 2, 6-(2,4-Dichlorophenyl)-4-(4-fluorophenyl)-2-oxo-1,2-dihydropyridin-3-carbonitrile] | 276 to 277 °C | – | – | – | – | – | – | – | – |
| N#Cc1c(-c2ccc(F)cc2)cc(-c2ccc(Cl)cc2Cl)nc1OCC(=O)NN [Compound 9, 2-[3-Cyano-6-(2,4-dichlorophenyl)-4-(4-fluorophenyl)pyridin-2-yloxy]acetohydrazide] | 197 to 199 °C | 0.46 ± 0.06 µg/mL (≈ 1.07 µM) | 2.3 ± 2.86 µg/mL (≈ 5.33 µM) | 2.41 ± 1.24 µg/mL (≈ 5.59 µM) | – | a | a | a | 62.2 ± 2.02 µg/mL (≈ 144 µM) |
| COc1cccc2c1C(=O)c1c(O)c3c(c(O)c1C2=O)C[C@@](O)(C(=O)CO)C[C@@H]3O[C@H]1C[C@H](N)[C@H](O)[C@H](C)O1 [Doxorubicin, reference compound] | – | 0.09 ± 0.007 µg/mL (≈ 0.166 µM) | 0.09 ± 0.008 µg/mL (≈ 0.166 µM) | 0.04 ± 0.008 µg/mL (≈ 0.0736 µM) | non-cytotoxic | – | – | – | – |
| N#Cc1c(-c2ccc(F)cc2)cc(-c2ccc(Cl)cc2Cl)nc1OCC(=O)NN=Cc1ccc(F)cc1 [Compound 10, 2-[3-Cyano-6-(2,4-dichlorophenyl)-4-(4-fluorophenyl)pyridin-2-yloxy]-N′-(4-fluorobenzylidene)-acetohydrazide] | 219 to 221 °C | 28.2 ± 8.83 µg/mL (≈ 52.4 µM) | 30.7 ± 1.64 µg/mL (≈ 57.1 µM) | 30.6 ± 1.1 µg/mL (≈ 56.9 µM) | – | b | b | b | 19.8 ± 2.68 µg/mL (≈ 36.8 µM) |
| N#Cc1c(-c2ccc(F)cc2)cc(-c2ccc(Cl)cc2Cl)nc1C(C#N)C#N [Compound 16, 2-[3-Cyano-6-(2,4-dichlorophenyl)-4-(4-fluorophenyl)pyridin-2-yl]malononitrile] | 99 to 101 °C | 0.01 ± 0.003 µg/mL (≈ 0.0246 µM) | 0.02 ± 0.001 µg/mL (≈ 0.0491 µM) | 0.01 ± 0.002 µg/mL (≈ 0.0246 µM) | non-cytotoxic | a | a | a | > 100 µg/mL |
| N#Cc1c(-c2ccc(F)cc2)cc(-c2ccc(Cl)cc2Cl)nc1Cl [Compound 11, 2-Chloro-6-(2,4-dichlorophenyl)-4-(4-fluorophenyl)nicotinonitrile] | 181 to 182 °C | – | – | – | – | – | – | – | – |
| N#Cc1c(-c2ccc(F)cc2)cc(-c2ccc(Cl)cc2Cl)nc1NCCc1ccccc1 [Compound 14, 6-(2,4-Dichlorophenyl)-4-(4-fluorophenyl)-2-(phenylethylamino)nicotinonitrile] | 142 to 143 °C | – | – | – | – | – | – | – | – |

More lines, main results first:

| melting point | IC50 (SF-268 (CNS cancer)) | IC50 [2] | IC50 [3] | SMILES | IC50 (μg/mL) WI 38 [1] | activity class SF-268 (SF-268 (CNS cancer)) | activity class NCI-H460 [2] | activity class MCF-7 [3] | IC50 [1] |
| --- | --- | --- | --- | --- | --- | --- | --- | --- | --- |
| 278 to 280 °C | 32.5 ± 6.04 µg/mL (≈ 62.2 µM) | 45 ± 10.5 µg/mL (≈ 86.2 µM) | 66 ± 8.25 µg/mL (≈ 127 µM) | COc1ccc(C=NNc2nc(-c3ccc(Cl)cc3Cl)cc(-c3ccc(F)cc3)c2C#N)cc1OC [Compound 21d, 6-(2,4-Dichlorophenyl)-2-[2-(3,4-dimethoxybenzylidene)hydrazinyl]-4-(4-fluorophenyl) nicotinonitrile] | non-cytotoxic | b | c | c | – |
| 98 to 100 °C | 38.9 ± 2.63 µg/mL (≈ 88.4 µM) | 16.4 ± 2.32 µg/mL (≈ 37.2 µM) | 37.1 ± 7.34 µg/mL (≈ 84.2 µM) | CC1CCCCN1c1nc(-c2ccc(Cl)cc2Cl)cc(-c2ccc(F)cc2)c1C#N (stereo not drawn) [Compound 15a, 6-(2,4-Dichlorophenyl)-4-(4-fluorophenyl)-2-(2-methylpiperidin-1-yl)nicotinonitrile] | – | c | b | c | 30.6 ± 6.21 µg/mL (≈ 69.5 µM) |
| 281 to 283 °C | – | – | – | N#Cc1c(-c2ccc(F)cc2)cc(-c2ccc(Cl)cc2Cl)nc1NN=Cc1ccc([N+](=O)[O-])cc1 [Compound 21b, 6-(2,4-Dichlorophenyl)-4-(4-fluorophenyl)-2-[2-(4-nitrobenzylidene)hydrazinyl]nicotinonitrile] | – | – | – | – | – |
| 296 to 298 °C | – | – | – | N#Cc1c(-c2ccc(F)cc2)cc(-c2ccc(Cl)cc2Cl)nc1NN=Cc1cccc2ccccc12 [Compound 21e, 6-(2,4-Dichlorophenyl)-4-(4-fluorophenyl)-2-[2-(naphthalen-1-ylmethylene)hydrazinyl] nicotinonitrile] | – | – | – | – | – |
| 226 to 228 °C | – | – | – | N#Cc1c(-c2ccc(F)cc2)cc(-c2ccc(Cl)cc2Cl)nc1NN=Cc1ccccc1Br [Compound 21a, 2-[2-(2-Bromobenzylidene)hydrazinyl]-6-(2,4-dichlorophenyl)-4-(4-fluorophenyl)nicotinonitrile] | – | – | – | – | – |
| 112 to 114 °C | – | – | – | N#Cc1c(-c2ccc(F)cc2)cc(-c2ccc(Cl)cc2Cl)nc1N1CCOCC1 [Compound 15b, 6-(2,4-Dichlorophenyl)-4-(4-fluorophenyl)-2-morpholinonicotinonitrile] | – | – | – | – | – |

Source: publication PMC6272992, “Synthesis and Cytotoxic Effect of Some Novel 1,2-Dihydropyridin-3-carbonitrile and Nicotinonitrile Derivatives” (Molecules, 2015)
